Source: patent US11878978B1, “Pyrrolo[2,3-c]quinoline compounds as CK2 inhibitors” (KING FAISAL UNIVERSITY, priority 2023, dated 2024)

Columns and labels:
PC3 (prostate) = assay: In vitro cytotoxic activity assay (MTT), PC3; assay type: cell-based; settings: Homo sapiens, Prostate cell; PC3 (prostate) cells, exposed for 96 hours; read-out: IC50, concentration of compound eliciting a 50% inhibition of cell proliferation
Experimental: (§1) Compounds 1-12 were screened for their in vitro cytotoxic activity utilizing a 3-(4,5-dimethyl-thiazol-2-yl)-2,5-diphenyltetrazolium bromide (MTT) assay against selected cancer human cell lines consisting of PC3 (prostate), HCT116 (colon), A375 (melanoma), H1299 (lung), MIAPaCa-2 (pancreas), HL60 (leukemia), MCF7 (breast), MDA-MB-231 (breast) (T. Mosmann, J. Immunol. Meth., 1983, 65, 55-63). The cells were cultured at 37° C. in RMPI1640 medium supplemented with 10% fetal bovine serum, 50 IU/mL penicillin, and 50 μg/mL streptomycin in a 5% CO2 incubator. All cells were sub-cultured 3 times/week by trypsinisation. Viable cells were seeded and allowed to adhere for 12 h before a test drug was added in 96-well plates at an initial density of 1.0×10^5 cells/mL. Tumour cell lines were separately exposed to various concentrations of the tested compounds followed by incubation at a temperature of 37° C. during 96 h inside a medium of fresh RMPI 1640. Cells were subsequently incubated at 37° C. using MTT at 0.5 mg/mL during 4 h. After removal of supernatant, formazan crystals were dissolved in isopropanol and the optical density was measured at 570 nm. CX-4945 was used as a positive control.

HCT116 (colon) = assay: In vitro cytotoxic activity assay (MTT), HCT116; assay type: cell-based; settings: Homo sapiens, HCT-116; HCT116 (colon) cells, exposed for 96 hours; read-out: IC50, concentration of compound eliciting a 50% inhibition of cell proliferation
Experimental: as §1

A375 (melanoma) = assay: In vitro cytotoxic activity assay (MTT), A375; assay type: cell-based; settings: Homo sapiens, A-375; A375 (melanoma) cells, exposed for 96 hours; read-out: IC50, concentration of compound eliciting a 50% inhibition of cell proliferation
Experimental: as §1

H1299 (lung) = assay: In vitro cytotoxic activity assay (MTT), H1299; assay type: cell-based; settings: Homo sapiens, NCI-H1299; H1299 (lung) cells, exposed for 96 hours; read-out: IC50, concentration of compound eliciting a 50% inhibition of cell proliferation
Experimental: as §1

MIAPaCa-2 (pancreas) = assay: In vitro cytotoxic activity assay (MTT), MIAPaCa-2; assay type: cell-based; settings: Homo sapiens, MIA PaCa-2; MIAPaCa-2 (pancreas) cells, exposed for 96 hours; read-out: IC50, concentration of compound eliciting a 50% inhibition of cell proliferation
Experimental: as §1

HL60 (leukemia) = assay: In vitro cytotoxic activity assay (MTT), HL60; assay type: cell-based; settings: Homo sapiens, HL-60; HL60 (leukemia) cells, exposed for 96 hours; read-out: IC50, concentration of compound eliciting a 50% inhibition of cell proliferation
Experimental: as §1

MCF7 (breast) = assay: In vitro cytotoxic activity assay (MTT), MCF7; assay type: cell-based; settings: Homo sapiens; MCF7 (breast) cells, exposed for 96 hours; read-out: IC50, concentration of compound eliciting a 50% inhibition of cell proliferation
Experimental: as §1

MDA-MB-231 (breast) = assay: In vitro cytotoxic activity assay (MTT), MDA-MB-231; assay type: cell-based; settings: Homo sapiens; MDA-MB-231 (breast) cells, exposed for 96 hours; read-out: IC50, concentration of compound eliciting a 50% inhibition of cell proliferation
Experimental: as §1

recombinant human CK2 = molecular target: T1, recombinant human CK2 (Homo sapiens, UniProt P68400); assay: CK2 Kinase Assay (33P-ATP, substrate peptide RRRDDDSDDD); assay type: biochemical; settings: final ATP concentration 15 μM, 10 min at 30° C., eight concentrations; read-out: protein kinase CK2 IC50
T1 construct: purchased Millipore
T1 sequence (P68400 whole entry): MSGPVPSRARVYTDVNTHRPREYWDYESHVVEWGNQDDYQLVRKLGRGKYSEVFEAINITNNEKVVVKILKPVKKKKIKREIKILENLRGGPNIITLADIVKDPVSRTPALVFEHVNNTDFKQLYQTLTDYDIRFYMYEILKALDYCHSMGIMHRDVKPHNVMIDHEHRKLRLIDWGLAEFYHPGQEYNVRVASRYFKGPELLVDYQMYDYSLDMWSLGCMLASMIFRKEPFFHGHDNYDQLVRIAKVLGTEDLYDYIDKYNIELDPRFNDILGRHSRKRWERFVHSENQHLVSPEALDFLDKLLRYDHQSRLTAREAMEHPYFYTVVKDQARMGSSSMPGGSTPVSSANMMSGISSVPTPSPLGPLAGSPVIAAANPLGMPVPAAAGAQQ
T1 sequence (P67870 whole entry partner): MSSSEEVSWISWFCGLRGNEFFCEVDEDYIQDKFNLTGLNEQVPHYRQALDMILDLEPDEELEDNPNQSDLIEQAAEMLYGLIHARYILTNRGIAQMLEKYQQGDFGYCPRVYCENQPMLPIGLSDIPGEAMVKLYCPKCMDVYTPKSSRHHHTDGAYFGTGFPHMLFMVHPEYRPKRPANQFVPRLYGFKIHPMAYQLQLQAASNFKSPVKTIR
Experimental: CK2 Kinase Assay was conducted using the protocol as described in Pierre F. et al; J. Med. Chem. 2011, 54, 635-654. The tested compounds in aqueous solution were added at a volume of 10 μL to a reaction mixture comprising 10 μL of assay dilution buffer (ADB; 20 mM MOPS, pH 7.2, 25 mM β-glycerol phosphate, 5 mM EGTA, 1 mM sodium orthovanadate, and 1 mM dithiothreitol), 10 μL of substrate peptide (RRRDDDSDDD, dissolved in ADB at a concentration of 1 mM), 10 μL of recombinant human CK2 (RROP-holoenzyme, 25 ng dissolved in ADB; Millipore). Reactions were initiated by the addition of 10 μL of ATP solution (90% 75 mMMgCl2, 75 μM ATP (final ATP concentration:15 μM) dissolved in ADB; 10% [γ-33P] ATP (stock 1 mCi/100 μL; 3000 Ci/mmol (Perkin-Elmer) and maintained for 10 min at 30° C. The reactions were quenched with 100 μL of 0.75% phosphoric acid and then transferred to and filtered through a phosphor cellulose filter plate (Millipore). After washing each well five times with 0.75% phosphoric acid, the plate was dried under vacuum for 5 min and, following the addition of 15 μL of scintillation fluid to each well, the residual radioactivity was measured using a Wallac luminescence counter. The IC50 values were derived from eight concentrations of test inhibitors.

Compound: O=C(O)c1ccc2c(c1)nc(Nc1cccc(Cl)c1)c1[nH]cc(C(=O)O)c12 [Compound 1, 4-((3-chlorophenyl)amino)-3H-pyrrolo[2,3-c]quinoline-1,7-dicarboxylic acid]
- IC50 (PC3 (prostate)): 1300 nM
- IC50 (HCT116 (colon)): 1700 nM
- IC50 (A375 (melanoma)): 2200 nM
- IC50 (H1299 (lung)): 1900 nM
- IC50 (MIAPaCa-2 (pancreas)): 1400 nM
- IC50 (HL60 (leukemia)): 3.1 µM
- IC50 (MCF7 (breast)): 6.2 µM
- IC50 (MDA-MB-231 (breast)): 4.6 µM
- IC50 (recombinant human CK2): 35 nM
